pIC50: −log10 of the molar value.
Columns and labels:
[1] = target: Histone Deacetylase 4 (HDAC4) catalytic domain (Homo sapiens (Human), UniProt P56524); assay: Biochemical HDAC inhibition assay, fluorogenic substrate Boc-Lys(Tfa)-AMC
Description: The potency of compounds is quantified by measuring the Histone Deacetylase 4 (HDAC4) catalytic domain enzymatic activity using the fluorogenic substrate, Boc-Lys(Tfa)-AMC. The substrate is deacetylated to Boc-Lys-AMC by HDAC4. Cleavage by trypsin results in the release of the fluorophore AMC from the deacetylated substrate. The fluorescence of the sample is directly related to the histone deacetylase activity in the sample.
Stocks of 60 μL aliquots of the 10 mM compound in DMSO are prepared and stored at −20° C. From one stock aliquot of each compound to be tested and the reference compound, a 16-point serial dilution is prepared according to Table 1 using a 125 μL 16-channel Matrix multi-channel pipette (Matrix Technologies Ltd).
2 μL (200×) of each diluted solution and each control (full activity: 100% DMSO alone or full inhibition 1 mM) is stamped into V-bottomed polypropylene 384-well compound plates using either the Bravo (384-well head from Agilent) or 12.5 μL 16-channel Matrix multi-channel pipette (Matrix Technologies Ltd). Each well with the 200× compound solution is diluted 1:20 by the addition of 38 μL assay buffer+DMSO (10.5% DMSO, 45 mM Tris-HCl, 123 mM NaCl, 2.4 mM KCl, and 0.9 mM MgCl2 at pH 8.0 and equilibrated to room temperature).
The HDAC4 catalytic domain enzyme is human catalytic domain HDAC4 protein (amino acids 648-1032) with a C-terminal 6× histidine tag, produced by BioFocus. A working solution of enzyme is prepared from a 500 μg/mL stock aliquot of HDAC4 catalytic domain (thawed on ice) diluted to 0.2 μg/mL with assay buffer (50 mM Tris-HCl, 137 mM NaCl, 2.7 mM KCl, and 1 mM MgCl2 at pH 8 and equilibrated to room temperature) just prior to the addition of the enzyme to the assay.
5× (50 μM) substrate is prepared just prior to the addition to the assay. A 1 mM substrate stock is made by diluting a 100 mM Boc-Lys(Tfa)-AMC in DMSO solution 1:100 by adding it drop-wise to assay buffer (equilibrated to room temperature) while vortexing at slow speed to prevent precipitation. The 5× substrate is prepared by diluting the 1 mM substrate solution 1:20 by adding it drop-wise to assay buffer (equilibrated to room temperature) while vortexing at slow speed to prevent precipitation.
3× (30 μM) Developer/Stop Solution is prepared just prior to addition to the plate by diluting a stock solution of 10 mM reference compound 1:333 in 25 mg/mL trypsin (PAA Laboratories Ltd.) equilibrated to room temperature.
5 μL of each solution of 1:20 diluted compound from above is transferred to a clear bottomed, black, 384-well assay plate using the Bravo or the Janus (384-well MDT head from Perkin Elmer). Using a 16-channel Matrix multi-channel pipette, 35 μL of the working solution of HDAC4 catalytic domain enzyme (0.2 μg/mL in assay buffer) is transferred to the assay plate. […] The assay plate is then shaken for two minutes on an orbital shaker at 900 rpm (rotations per minute). Next the plate is incubated for 15 minutes at 37° C. The reaction is stopped by adding 25 μL of 3× (30 μM) developer/stop solution to the assay plates using either the Bravo, Janus or a 16-channel Matrix multi-channel pipette. Assay plates are then shaken for 5 minutes on an orbital shaker at 1200 rpm. Next, the assay plates are incubated at 37° C. for 1 hour in a tissue culture incubator. Finally, the fluorescence is measured (Excitation: 355 nm, Emission: 460 nm) using PerkinElmer EnVision in top read mode.

[2] = test system: cellular histone deacetylase enzymatic activity in Jurkat E6-1 cells; assay: Inhibition of cellular HDAC activity, Boc-Lys(Tfa)-AMC substrate (Cell Lys-TFA); assay type: cell-based
Method in brief: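 Jurkat E6-1 cells (75,000/well) were treated with a 16-point compound dilution for 2 h at 37 °C, then exposed to Boc-Lys(Tfa)-AMC for 3 h. Lysis buffer containing trypsin was added overnight (15-16 h), and AMC fluorescence was read at Ex 355/Em 460 nm.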

[3] = test system: cellular histone deacetylase activity (Lys-Ac); assay: Inhibition of cellular HDAC activity (Cell Lys-Ac); assay type: cell-based; details: Lys-Ac substrate
[4] = Homo sapiens, Jurkat E6.1, Lys-TFA substrate

Chain of Histone Deacetylase 4 (HDAC4) catalytic domain (P56524 648-1032): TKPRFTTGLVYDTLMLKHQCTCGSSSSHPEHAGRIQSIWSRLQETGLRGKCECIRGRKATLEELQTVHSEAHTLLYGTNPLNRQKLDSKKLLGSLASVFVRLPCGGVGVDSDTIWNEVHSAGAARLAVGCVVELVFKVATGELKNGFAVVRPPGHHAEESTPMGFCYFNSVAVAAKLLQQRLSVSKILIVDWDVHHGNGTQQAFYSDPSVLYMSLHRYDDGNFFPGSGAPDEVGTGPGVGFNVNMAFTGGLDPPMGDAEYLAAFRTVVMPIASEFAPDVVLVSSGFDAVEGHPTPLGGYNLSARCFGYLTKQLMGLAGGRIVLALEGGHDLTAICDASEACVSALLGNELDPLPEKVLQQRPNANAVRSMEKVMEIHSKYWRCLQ

SMILES	pIC50 [1]	pIC50 ([2]; Lys-TFA substrate)	pIC50 [3]	pIC50 [2, 4]
Cc1cc(F)ccc1-c1nc2c(s1)CC(C(=O)NO)(c1cccc(F)c1C)C2 (single isomer, unassigned) [Example 74, E1-(abs)-5-(3-Fluoro-2-methylphenyl)-2-(4-fluoro-2-methylphenyl)-N-hydroxy-5,6-dihydro-4H-cyclopenta[d]thiazole-5-carboxamide]	6.11	6.27	< 4.30	
Cc1c(F)cccc1C1(C(=O)NO)CCc2nc(-c3ccccc3)ncc2C1 (stereo not drawn) [Example 47, 6-(3-Fluoro-2-methylphenyl)-N-hydroxy-2-phenyl-5,6,7,8-tetrahydroquinazoline-6-carboxamide]	5.49		< 4.30	5.96
Cc1c(F)cccc1[C@]1(C(=O)NO)CCc2nn(Cc3ccccc3)cc21 [Example 94, (R)-2-Benzyl-4-(3-fluoro-2-methylphenyl)-N-hydroxy-2,4,5,6-tetrahydrocyclopenta[c]pyrazole-4-carboxamide]	6.09		< 4.30	5.56
Cc1c(F)cccc1[C@]1(C(=O)NO)CCc2nn(Cc3ccccc3F)cc21 [Example 95, (R)-4-(3-fluoro-2-methylphenyl)-2-(2-fluorobenzyl)-N-hydroxy-2,4,5,6-tetrahydrocyclopenta[c]pyrazole-4-carboxamide]	6.15		< 4.30	5.53
Cc1c(F)cccc1C1(C(=O)NO)Cc2nc(-c3cnn(C)c3C)sc2C1 (single isomer, unassigned) [Example 76, E1-(abs)-2-(1,5-Dimethyl-1H-pyrazol-4-yl)-5-(3-fluoro-2-methylphenyl)-N-hydroxy-5,6-dihydro-4H-cyclopenta[d]thiazole-5-carboxamide]	7.17	7.44	< 4.30	
Cc1c(F)cccc1C1(C(=O)NO)Cc2nc(-c3cnn(C)c3C)sc2C1 (single isomer, unassigned) [Example 77, E2-(abs)-2-(1,5-dimethyl-1H-pyrazol-4-yl)-5-(3-fluoro-2-methylphenyl)-N-hydroxy-5,6-dihydro-4H-cyclopenta[d]thiazole-5-carboxamide]	6.70	6.89	< 4.30	
Cc1c(F)cccc1[C@]1(C(=O)NO)Cc2cnn(C3CCCC3)c2C1 [Example 18, (S)-1-Cyclopentyl-5-(3-fluoro-2-methylphenyl)-N-hydroxy-1,4,5,6-tetrahydrocyclopenta[c]pyrazole-5-carboxamide]	7.43		< 4.30	6.79
Cc1c(F)cccc1C1(C(=O)NO)CCc2cn(CC(F)(F)F)nc2CC1 (single isomer, unassigned) [Example 84, E1-(abs)-6-(3-Fluoro-2-methylphenyl)-N-hydroxy-2-(2,2,2-trifluoroethyl)-2,4,5,6,7,8-hexahydrocyclohepta[c]pyrazole-6-carboxamide]	6.32		< 4.30	5.85
Cc1c(F)cccc1[C@]1(C(=O)NO)CCc2c1cnn2Cc1ccccc1 [Example 93, (R)-1-benzyl-4-(3-fluoro-2-methylphenyl)-N-hydroxy-1,4,5,6-tetrahydrocyclopenta[c]pyrazole-4-carboxamide]	7.57		< 4.30	6.77
Cc1cccc(F)c1-n1ncc2c1C[C@](C(=O)NO)(c1cccc(F)c1C)C2 [Example 15, (S)-5-(3-Fluoro-2-methylphenyl)-1-(2-fluoro-6-methylphenyl)-N-hydroxy-1,4,5,6-tetrahydrocyclopenta[c]pyrazole-5-carboxamide]	7.72		< 4.30	7.49
Cc1c(F)cccc1C1(C(=O)NO)CCc2cn(CC(F)(F)F)nc2CC1 (single isomer, unassigned) [Example 85, E2-(abs)-6-(3-fluoro-2-methylphenyl)-N-hydroxy-2-(2,2,2-trifluoroethyl)-2,4,5,6,7,8-hexahydrocyclohepta[c]pyrazole-6-carboxamide]	6.10	5.74	< 4.30	
Cc1c(F)cccc1C1(C(=O)NO)CCc2nc(C3CC3)[nH]c(=O)c2C1 (stereo not drawn) [Example 40, 2-Cyclopropyl-6-(3-fluoro-2-methylphenyl)-N-hydroxy-4-oxo-3,4,5,6,7,8-hexahydroquinazoline-6-carboxamide]	5.80		< 4.30	6.24
Cc1ccc(C)c(-n2ncc3c2C[C@](C(=O)NO)(c2cccc(F)c2C)C3)c1 [Example 12, (S)-1-(2,5-Dimethylphenyl)-5-(3-fluoro-2-methylphenyl)-N-hydroxy-1,4,5,6-tetrahydrocyclopenta[c]pyrazole-5-carboxamide]	7.68		< 4.30	7.74

More lines, now with the values ahead:

pIC50 [1]	pIC50 ([2]; Lys-TFA substrate)	pIC50 [3]	pIC50 [2, 4]	SMILES
6.06		< 4.30	5.74	Cc1c(F)cccc1[C@]1(C(=O)NO)Cc2cnc(C(F)(F)F)nc2C1 [Example 56, (S)-6-(3-Fluoro-2-methylphenyl)-N-hydroxy-2-(trifluoromethyl)-6,7-dihydro-5H-cyclopenta[d]pyrimidine-6-carboxamide]
6.96		< 4.30	5.74	Cc1c(F)cccc1C1(C(=O)NO)Cc2ccccc2C1 [Example 82, 2-(3-Fluoro-2-methylphenyl)-N-hydroxy-2,3-dihydro-1H-indene-2-carboxamide]
7.19		< 4.30	7.16	Cc1c(F)cccc1[C@]1(C(=O)NO)Cc2cn(-c3ncccc3Cl)nc2C1 [Example 28, (S)-2-(3-Chloropyridin-2-yl)-5-(3-fluoro-2-methylphenyl)-N-hydroxy-2,4,5,6-tetrahydrocyclopenta[c]pyrazole-5-carboxamide]
7.32		< 4.30	7.57	Cc1c(F)cccc1[C@]1(C(=O)NO)Cc2cnn(Cc3ccccc3)c2C1 [Example 92, (S)-1-Benzyl-5-(3-fluoro-2-methylphenyl)-N-hydroxy-1,4,5,6-tetrahydrocyclopenta[c]pyrazole-5-carboxamide]
7.77		< 4.30	7.77	Cc1c(F)cccc1[C@]1(C(=O)NO)Cc2cnn(-c3cccc(Cl)c3F)c2C1 [Example 10, (S)-1-(3-Chloro-2-fluorophenyl)-5-(3-fluoro-2-methylphenyl)-N-hydroxy-1,4,5,6-tetrahydrocyclopenta[c]pyrazole-5-carboxamide]
6.83		< 4.30	6.76	Cc1c(F)cccc1[C@]1(C(=O)NO)Cc2cn(-c3ccc(OC(F)F)cc3)nc2C1 [Example 21, (S)-2-(4-(difluoromethoxy)phenyl)-5-(3-fluoro-2-methylphenyl)-N-hydroxy-2,4,5,6-tetrahydrocyclopenta[c]pyrazole-5-carboxamide]
6.55		< 4.30	6.34	Cc1cc(C)nc(-n2cc3c(n2)C[C@](C(=O)NO)(c2cccc(F)c2C)C3)n1 [Example 91, (S)-2-(4,6-Dimethylpyrimidin-2-yl)-5-(3-fluoro-2-methylphenyl)-N-hydroxy-2,4,5,6-tetrahydrocyclopenta[c]pyrazole-5-carboxamide]
7.36		< 4.30	7.46	Cc1c(F)cccc1[C@@]1(C(=O)NO)Cc2nc(-c3ccnn3C)sc2C1 [Example 69, (R)-5-(3-Fluoro-2-methylphenyl)-N-hydroxy-2-(1-methyl-1H-pyrazol-5-yl)-5,6-dihydro-4H-cyclopenta[d]thiazole-5-carboxamide]
